Measured values reported in the supplement of paper PMC4862054.

Experiments:
Conditions in all cases: incubation time: 72 h
SK-BR-3 [1] = test: drug sensitivity score (DSS), CellTiter-Glo (DSS (AUC-based score)); higher = stronger drug effect (viability inhibition or cytotoxicity); extreme values may be limits of the assay
Summary of the method: (§1)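 In 384-well plates, compound was laid out at 5 concentrations in 10-fold steps over a 10,000-fold range specific to each compound, and breast cancer cell lines were seeded on top in 20 µl suspension for a 72 h incubation. CellTox Green fluorescence and then CellTiter-Glo luminescence were read, and each plate was normalised to 0.1 % DMSO and a positive kill control. The drug sensitivity score was calculated from the area under the fitted dose-response curve.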

MFM-223 [2] = test: as above
Summary of the method: as §1

HCC1143 [3] = test: as above
Summary of the method: as §1

CAL-148 = test: as above
Summary of the method: as §1

HCC1599 = test: as above
Summary of the method: as §1

CAL-51 [4] = test: as above
Summary of the method: as §1

Hs578T = test: as above
Summary of the method: as §1

MDA-MB-453 = test: as above
Summary of the method: as §1

HCC1937 [5] = test: as above
Summary of the method: as §1

BT-474 [6] = test: as above
Summary of the method: as §1

MDA-MB-468 [7] = test: as above
Summary of the method: as §1

CAL-85-1 = test: as above
Summary of the method: as §1

BT-549 = test: as above
Summary of the method: as §1

MCF-10A = test: as above
Summary of the method: as §1

MDA-MB-436 = test: as above
Summary of the method: as §1

SK-BR-3 [8] = test: normalised viability (% of control), CellTiter-Blue; higher = more viable cells (about 100 = DMSO control)
Summary of the method: (§2)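 Each entry is normalised viability at a single listed concentration within a series. It comes from breast cancer cell lines incubated 72 h with compound in 384-well plates, then measured with CellTiter-Blue fluorescence at 560/590 nm. Every plate was normalised between vehicle (100) and a positive kill control (0).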

MFM-223 [9] = test: as above
Summary of the method: as §2

HCC1143 [10] = test: as above
Summary of the method: as §2

CAL-51 [11] = test: as above
Summary of the method: as §2

HCC1937 [12] = test: as above
Summary of the method: as §2

HDQ-P1 = test: as above
Summary of the method: as §2

BT-474 [13] = test: as above
Summary of the method: as §2

MDA-MB-468 [14] = test: as above
Summary of the method: as §2

MDA-MB-231 = test: as above
Summary of the method: as §2

CAL-120 = test: as above
Summary of the method: as §2

COc1cc([C@@H]2c3cc4c(cc3[C@@H](O[C@@H]3O[C@@H]5CO[C@@H](C)O[C@H]5[C@H](O)[C@H]3O)[C@H]3COC(=O)[C@H]23)OCO4)cc(OC)c1O [Etoposide]
Conditions | drug sensitivity score
BT-474 [6] | 3.57
BT-549 | 5.14
CAL-51 [4] | 8.68
CAL-85-1 | 0.96
CAL-148 | 7.19
HCC1143 [3] | 4.37
HCC1599 | 9.75
HCC1937 [5] | 0
Hs578T | 2.84
MCF-10A | 0
MDA-MB-436 | 7.41
MDA-MB-453 | 0
MDA-MB-468 [7] | 5.45
MFM-223 [2] | 0
SK-BR-3 [1] | 9.09

normalised viability [%]
Conditions | BT-474 [13] | CAL-51 [11] | CAL-120 | HCC1143 [10] | HCC1937 [12] | HDQ-P1 | MDA-MB-231 | MDA-MB-468 [14] | MFM-223 [9] | SK-BR-3 [8]
3 nM | – | 98.6 | – | – | – | 90.8 | – | – | – | –
10 nM | 116 | – | 92.5 | 85.7 | 78.5 | – | 121 | 107 | 99.2 | 98.2
30 nM | – | 85.8 | – | – | – | 91 | – | – | – | –
100 nM | – | 77.3 | – | – | – | 33.6 | – | – | – | –
1000 nM | 96.4 | – | 73.6 | 66.6 | 64.9 | – | 82.7 | 73 | 107 | 46.5
10000 nM | 87.3 | – | 59.1 | 47.3 | 38.9 | – | 66.1 | 35.9 | 81.6 | 12.9

C[C@]12CC[C@@H]3c4ccc(O)cc4C[C@@H](CCCCCCCCC[S+]([O-])CCCC(F)(F)C(F)(F)F)[C@H]3[C@@H]1CC[C@@H]2O (stereo not given in full) [Fulvestrant]
Conditions | drug sensitivity score
BT-474 [6] | 0
BT-549 | 0
CAL-51 [4] | 0
CAL-85-1 | 0
CAL-148 | 0
HCC1143 [3] | 0
HCC1599 | 0
HCC1937 [5] | 0
Hs578T | 0
MCF-10A | 0
MDA-MB-436 | 0
MDA-MB-453 | 0
MDA-MB-468 [7] | 0
MFM-223 [2] | 0
SK-BR-3 [1] | 0

normalised viability [%]
Conditions | BT-474 [13] | CAL-51 [11] | CAL-120 | HCC1143 [10] | HCC1937 [12] | HDQ-P1 | MDA-MB-231 | MDA-MB-468 [14] | MFM-223 [9] | SK-BR-3 [8]
3 nM | – | 116 | – | – | – | 83.7 | – | – | – | –
10 nM | 94.7 | – | 79.2 | 76.6 | 88.3 | – | 105 | 97.5 | 67.2 | 76.9
30 nM | – | 107 | – | – | – | 92.2 | – | – | – | –
100 nM | – | 109 | – | – | – | 94 | – | – | – | –
1000 nM | 88.4 | – | 90.7 | 81.5 | 85.5 | – | 99.7 | 104 | 77.6 | 109
10000 nM | 107 | – | 87.6 | 78.1 | 88.3 | – | 90.2 | 83.6 | 45.2 | 84.5

O=P1(NCCCl)OCCCN1CCCl (stereo not given) [Ifosfamide]
Conditions | drug sensitivity score
BT-474 [6] | 0.0144
BT-549 | 0
CAL-51 [4] | 0
CAL-85-1 | 0
CAL-148 | 0
HCC1143 [3] | 0
HCC1599 | 0
HCC1937 [5] | 0
Hs578T | 0
MCF-10A | 0
MDA-MB-436 | 0
MDA-MB-453 | 0
MDA-MB-468 [7] | 0
MFM-223 [2] | 0
SK-BR-3 [1] | 0

normalised viability [%]
Conditions | BT-474 [13] | CAL-51 [11] | CAL-120 | HCC1143 [10] | HCC1937 [12] | HDQ-P1 | MDA-MB-231 | MDA-MB-468 [14] | MFM-223 [9] | SK-BR-3 [8]
3 nM | – | 114 | – | – | – | 94 | – | – | – | –
10 nM | 114 | – | 88.7 | 80.1 | 84 | – | 101 | 110 | 87.1 | 109
30 nM | – | 110 | – | – | – | 93.9 | – | – | – | –
100 nM | – | 107 | – | – | – | 103 | – | – | – | –
1000 nM | 112 | – | 99.3 | 82.4 | 74.6 | – | 97.3 | 120 | 91.6 | 117
10000 nM | 120 | – | 85.2 | 91.1 | 97.6 | – | 109 | 103 | 97.3 | 97.8

CC(C)Cn1cnc2c(N)nc3ccccc3c21 [Imiquimod]
Conditions | drug sensitivity score
BT-474 [6] | 0
BT-549 | 0
CAL-51 [4] | 0
CAL-85-1 | 0
CAL-148 | 0
HCC1143 [3] | 0
HCC1599 | 0
HCC1937 [5] | 0
Hs578T | 0
MCF-10A | 0
MDA-MB-436 | 0
MDA-MB-453 | 0
MDA-MB-468 [7] | 0
MFM-223 [2] | 0
SK-BR-3 [1] | 0

normalised viability [%]
Conditions | BT-474 [13] | CAL-51 [11] | CAL-120 | HCC1143 [10] | HCC1937 [12] | HDQ-P1 | MDA-MB-231 | MDA-MB-468 [14] | MFM-223 [9] | SK-BR-3 [8]
3 nM | – | 103 | – | – | – | 91.7 | – | – | – | –
10 nM | 104 | – | 97.9 | 96.5 | 86.2 | – | 84.8 | 102 | 108 | 85
30 nM | – | 97.9 | – | – | – | 92 | – | – | – | –
100 nM | – | 98.1 | – | – | – | 96.6 | – | – | – | –
1000 nM | 115 | – | 97.2 | 99.9 | 82.5 | – | 89.3 | 103 | 98.3 | 91.2
10000 nM | 102 | – | 105 | 94.1 | 88.5 | – | 107 | 107 | 102 | 115
